Experimental data reported in article PMC9537541, “Synthesis and anticancer activity of new benzensulfonamides incorporating s-triazines as cyclic linkers for inhibition of carbonic anhydrase IX” (Scientific Reports, 2022).
“Also recorded” adds a separate entry of the source.

Columns and labels:
[1] = molecular target: T1, hCA I (Homo sapiens, UniProt P00915); assay: stopped-flow CO2 hydrase assay, hCA I; format: biochemical; conditions: stopped flow technique, mean from 3 different assays
T1 construct: made in house
T1 sequence (P00915 whole entry): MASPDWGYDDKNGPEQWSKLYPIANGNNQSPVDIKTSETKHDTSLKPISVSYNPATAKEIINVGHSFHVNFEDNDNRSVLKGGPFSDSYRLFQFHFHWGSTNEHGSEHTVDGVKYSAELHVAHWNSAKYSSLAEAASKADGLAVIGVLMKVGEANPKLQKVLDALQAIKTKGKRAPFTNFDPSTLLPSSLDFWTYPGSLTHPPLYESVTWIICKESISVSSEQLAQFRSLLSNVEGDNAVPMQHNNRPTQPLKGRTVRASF
Method: (§1) Target compounds of series (A) and (B) were screened as inhibitors concerning the physiologically relevant hCAs; cytosolic isoforms (hCA I and II) in addition to the transmembrane tumor related isoforms (hCA IX and XII) via a stopped-flow assay of carbonic anhydrase catalyzed CO2 hydration. Acetazolamide (AAZ), CA I drug, was also incorporated in the assays as a standard drug. […] Four CA isoforms inhibition activity was measured by assaying CA catalyzed CO2 hydration via an applied photophysics stopped-flow instrument. PRISM 3 and the Cheng-prusoff equation were used to determine the inhibition constant by non-linear least square methods as reported, and represent the mean from three different determination at least. All tested carbonic anhydrase isoforms were recombinant proteins prepared in lab as described earlier,[57].

[2] = molecular target: T2, hCA II (Homo sapiens, UniProt P00918); assay: stopped-flow CO2 hydrase assay, hCA II; format: biochemical; conditions: stopped flow technique, mean from 3 different assays
T2 construct: made in house
Method: as §1

[3] = molecular target: T3, hCA IX (Homo sapiens, UniProt Q16790); assay: stopped-flow CO2 hydrase assay, hCA IX; format: biochemical; conditions: for Selectivity index (SI) I/IX: hCA IX over off-target hCA I; for Selectivity index (SI) II/IX: hCA IX over off-target hCA II; for Ki: stopped flow technique, mean from 3 different assays
T3 construct: made in house
Method: as §1

[4] = molecular target: T4, hCA XII (Homo sapiens, UniProt O43570); assay: stopped-flow CO2 hydrase assay, hCA XII; format: biochemical; conditions: for Selectivity index (SI) I/XII: hCA XII over off-target hCA I; for Selectivity index (SI) II/XII: hCA XII over off-target hCA II; for Ki: stopped flow technique, mean from 3 different assays
T4 construct: made in house
T4 sequence (O43570 25-354): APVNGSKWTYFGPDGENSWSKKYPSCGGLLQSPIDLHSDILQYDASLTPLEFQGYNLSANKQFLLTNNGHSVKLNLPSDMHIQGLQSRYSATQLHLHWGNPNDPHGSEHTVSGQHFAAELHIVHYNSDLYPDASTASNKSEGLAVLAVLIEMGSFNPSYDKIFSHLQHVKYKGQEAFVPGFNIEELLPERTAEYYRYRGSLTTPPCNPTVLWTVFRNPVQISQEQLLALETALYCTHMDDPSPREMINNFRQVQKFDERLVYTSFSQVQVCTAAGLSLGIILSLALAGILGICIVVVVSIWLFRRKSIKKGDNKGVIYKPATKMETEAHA
Method: as §1

[5] = system: Breast cancer (MDA-MB-468); assay: NCI single dose SRB screen, MDA-MB-468; format: cell-based; conditions: for inhibition at 10 µM: Homo sapiens, MDA-MB-468, 48 h, 10^−5 M single dose, 48 h, SRB, read-out: GI% Breast cancer (MDA-MB-468); for GI% Normoxia MDA-MB-468: normoxic condition (5% CO2, 95% air at 37 °C), NCI protocol
Method: (§2) Target compounds in series (A) and (B), were submitted to the National Cancer Institute (NCI) Developmental Therapeutic Program (www.dtp.nci.nih.gov), where they have been assessed, in vitro for their anticancer activity. Two series (A) and (B), were screened in a single dose (10 µM) versus full panel composed of 60 cancer cell lines, in accordance with protocol of drug evaluation branch, NCI, Bethesda. Sulforhodamine B (SRB) colorimetric assay was used to determine cell growth and viability,[40].
(§3) Protocol of Drug Evaluation Branch, NCI, Bethesda, was adopted in the antitumor assay. Assessment of cell growth and viability was carried out utilizing SRB assay and 48 h drug exposure protocol as previously reported,[40].

[6] = system: Leukemia (SR); assay: NCI single dose SRB screen, SR; format: cell-based; conditions: 48 h, 10^−5 M single dose, read-out: GI% Leukemia (SR)
Method: as §2, §3

[7] = system: Leukemia (CCRF-CEM); assay: NCI single dose SRB screen, CCRF-CEM; format: cell-based; conditions: normoxic condition (5% CO2, 95% air at 37 °C), NCI protocol
Method: as §2, §3

[8] = system: leukemia (RPMI-8226); assay: NCI single dose SRB screen, RPMI-8226; format: cell-based; conditions: 10 µM single dose
Method: as §2, §3

[9] = system: breast cancer (T-47D); assay: NCI single dose SRB screen, T-47D; format: cell-based; conditions: 10 µM single dose
Method: as §2, §3

[10] = system: Breast cancer (MDA-MB-468); assay: anti-proliferative activity under hypoxic condition (MTT), MDA-MB-468; format: cell-based; conditions: for IC50: Homo sapiens, MDA-MB-468, hypoxic conditions (1%O2, 5% CO2 and 94% N2), mean ± S.D. of three experiments; for GI% Hypoxia MDA-MB-468: hypoxic condition (1% O2, 5% CO2, and 94%N2 at 37 °C)
Method: (§4) All cells were incubated in hypoxic atmosphere (1% O2, 5% CO2, and 94%N2) and maintained at 37 °C. All procedures to determine compounds cytotoxicity were accomplished using MTT assay as reported,[59],[60].

[11] = system: leukemia (CCRF-CM); assay: anti-proliferative activity under hypoxic condition (MTT), CCRF-CM; format: cell-based; conditions: for GI% Hypoxia CCRF-CM: hypoxic condition (1% O2, 5% CO2, and 94%N2 at 37 °C); for IC50: hypoxic conditions (1%O2, 5% CO2 and 94% N2), mean ± S.D. of three experiments
Method: as §4

[12] = system: normal human embryonic kidney cells (HEK-293); assay: normal cell line cytotoxicity (MTT), HEK-293; format: cell-based
Method: All data was collected in triplicate, and IC50 values were calculated as the average of three separate trials.

[13] = system: MDA-MB-468 breast cancer cells; assay: cell cycle analysis by flow cytometry; format: cell-based; conditions: 24 h at IC50 concentration (3.99 µM)
Excerpt: Cell cycle is composed of four distinct phases: G1, S, G2, and M[45]. Flow cytometry analysis of DNA ploidy in MDA-MB-468 breast cancer cells was used to evaluate the influence of compound 12d on normal cell cycle progression. […] Apoptosis and DNA fragmentation are possible mechanisms for 12d-induced cancer cell death based on the observed high increase in a pre-G1 cell population by 20 fold compared to the control.
The treated cells were centrifuged and maintained in ice-cold ethanol (70%) before being washed again with PBS and then re-suspended in RNase ([…]) followed by staining with 40 µg/mL PI, and analyzed by flow cytometry technique using a FACS Calibur (Becton Dickinson,BD, USA). Cell cycle distribution were calculated via CellQuest software 5.1 (Becton Dickinson),[63].

[14] = system: MDA-MB-468 breast cancer cells; assay: Annexin V-FITC/propidium iodide apoptosis assay; format: cell-based
Method: Apoptosis of tumor cells is the principal therapeutic objective of antiproliferative agents. The apoptotic induction potential of 12d in MDA-MB-468 cells were assessed using the Annexin V/propidium iodide double staining assay,[48].
Cells apoptosis further analyzed by measuring phosphatidylserine externalization using V-FITC/PI apoptosis detection kit (BD Biosciences, USA) according manufacturer's instructions, as reported,[62].

[15] = system: caspase 9; assay: Western blot of caspase 9 in MDA-MB-468 cells; format: cell-based
Excerpt: (§5) Caspases, cysteine-containing aspartic acid-specific proteases, afford essential factors in cell networks that control and regulate death of the cell. Caspase-3 is a vital executioner protease which is triggered by cascade of initiator caspases such as caspase-9 [49]. This study was further extended to explore the apoptosis mechanism of compound 12d upon breast cancer, MDA-MB-468, cells by measuring the expression of apoptosis biomarkers (cleaved caspase 3 and caspase 9) via Gel electrophoresis and immune-blot analysis of proteins (Western Blot) using β-actin to normalize the loading. […] Accordingly, compound 12d have the ability to induce apoptosis in MDA-MB-468 cancer cells probably by pathways involving both caspase3 and caspase9.
(§6) MDA-MB-468 cells, were harvested on dishes of cell culture and treated for 24 h with compound 12d. An equal amount of protein transferred to PVDF membranes after separated by SDS-PAGE (5–15%). Skim milk with concentration 5% was used to block the blotted membranes for 1 h before being incubated with the desired primary antibodies at 37 °C for 1 h. Colorimetric technique was used to visualize immune reactive bands using Geldoc-it, UVP, England. To quantify equal loading, membrane was reseeded with β-actin antibody.
(§7) Eelectrophoresed proteins on SDS-PAGE were transferred to a Hybond™ nylon membrane (GE Healthcare) via TE62 Standard transfer tank with Cooling Chamber (Hoefer Inc. and incubate for 1 hour at room temperature in Blocking Solution. Additionally, β-actin (abcam, ab8227) was applied as housekeeping protein.
(§8) - Membrane was incubated the overnight at 4°C in antibody solution containing caspase isoform (Cell Signalling) separately for each antibody.
(§9) - Colorimetric technique was used to visualize immune reactive bands using Geldoc-it, UVP, England. Each experiment was run in triplicate.

[16] = system: caspase 3; assay: Western blot of caspase 3 in MDA-MB-468 cells; format: cell-based
Excerpt: as §5, §6, §7, §8, §9

[17] = system: CNS cancer (SNB-75); assay: NCI single dose SRB screen, SNB-75; format: cell-based; conditions: Homo sapiens, SNB-75, 48 h, 10^−5 M single dose, read-out: GI% CNS cancer (SNB-75)
Method: as §2, §3

[18] = system: Renal cancer (UO-31); assay: NCI single dose SRB screen, UO-31; format: cell-based; conditions: Homo sapiens, UO-31, 48 h, 10^−5 M single dose, read-out: GI% Renal cancer (UO-31)
Method: as §2, §3

[19] = system: non-small cell lung cancer (HOP-92); assay: NCI single dose SRB screen, HOP-92; format: cell-based; conditions: 10 µM single dose
Method: as §2, §3

[20] = Western blot, β-actin normalised

SMILES | Ki [1] [nM] | Ki [2] [nM] | Selectivity index (SI) I/IX [3] | Selectivity index (SI) II/IX [3] | Ki [3] [nM] | Selectivity index (SI) I/XII [4] | Selectivity index (SI) II/XII [4] | Ki [4] [nM] | inhibition at 10 µM [5] [%] | GI% Normoxia MDA-MB-468 [5] [%] | inhibition at 10 µM [6] [%] | GI% Normoxia CCRF-CM [7] [%] | IC50 [10] [nM] | GI% Hypoxia MDA-MB-468 [10] [%] | GI% Hypoxia CCRF-CM [11] [%] | IC50 [11] [nM] | inhibition at 10 µM [17] [%] | inhibition at 10 µM [18] [%] | melting point [°C] | other results
CN(C)c1ccc(/C=C(\C#N)c2nc(N)nc(Nc3ccc(S(N)(=O)=O)cc3)n2)cc1 [Compound 12d, 4-({4-Amino-6-[(1E)-1-cyano-2-[4-(dimethylamino)phenyl]eth-1-en-1-yl]-1,3,5-triazin-2-yl}amino)benzene-1-sulfonamide] | 577 | 364 | 3 | 2 | 190 | 3 | 2 | 188 | ≥ 50 | 61.39 | ≥ 50 | 52.61 | 3990 ± 210 | 59.38 | 55.82 | 4510 ± 240 | – | – | – | GI% leukemia (RPMI-8226) [8]: ≥ 50%; GI% breast cancer (T-47D) [9]: ≥ 50%; IC50 ([12]; Homo sapiens, HEK293, normal cells, mean ± SD of three independent experiments): 68100 ± 3720 nM; safety index relative to staurosporine ([12]; cancer versus normal cells): about twofold; cell cycle arrest phases [13]: G0-G1 and S phases; increase in pre-G1 cell population compared to the control [13]: 20 fold; total increase in apoptotic cells compared to the control ([14]; annexin V-FITC positive cells): about 20 fold; apoptotic cells in late apoptosis phase (UR) ([14]; annexin V-FITC/PI, control 0.11%): 17.66%; apoptotic cells in early stage (LR) ([14]; annexin V-FITC/PI, control 0.39%): 2.76%; cleaved caspase 9 expression relative to the control [15, 20]: increasing the level; also recorded: significant activation; Expression level of procaspase 9, Lane %, Mean ± SD ([15]; treated 24 h, three replicates, control 40.53 ± 0.008): 25.30 ± 0.004%; Expression level of cleaved caspase 9, Lane %, Mean ± SD, first line ([15]; treated, first of two band lines (35/37 KDa), control 6.75 ± 0.008): 6.04 ± 0.012%; Expression level of cleaved caspase 9, Lane %, Mean ± SD, second line ([15]; treated, second of two band lines (35/37 KDa), control 14.32 ± 0.004): 21.59 ± 0.004%; cleaved caspase 3 expression relative to the control [16, 20]: increasing the level; also recorded: significant activation; Expression level of procaspase 3, Lane %, Mean ± SD ([16]; treated 24 h, three replicates, control 42.52 ± 0.013): 27.81 ± 0.008%; Expression level of cleaved caspase 3, Lane %, Mean ± SD, first line ([16]; treated, first of two band lines (17/19 KDa), control 4.91 ± 0.017): 6.88 ± 0.008%; Expression level of cleaved caspase 3, Lane %, Mean ± SD, second line ([16]; treated, second of two band lines (17/19 KDa), control 13.59 ± 0.0): 22.42 ± 0.0%
Cc1ccc(/C=C(\C#N)c2nc(N)nc(Nc3ccc(S(N)(=O)=O)cc3)n2)cc1 [Compound 12g, 4-({4-Amino-6-[(1E)-1-cyano-2-(4-methylphenyl)eth-1-en-1-yl]-1,3,5-triazin-2-yl}amino)benzene-1-sulfonamide] | 159 | 697 | 0.8 | 3.6 | 195 | 0.07 | 0.3 | 2310 | 11 | – | ≤ 10 | – | – | – | – | – | 15 | 11 | 204 to 206 | –
N#C/C(=C\c1cccc(Cl)c1)c1nc(N)nc(Nc2ccc(S(N)(=O)=O)cc2)n1 [Compound 12h, 4-({4-Amino-6-[(1E)-2-(3-chlorophenyl)-1-cyanoeth-1-en-1-yl]-1,3,5-triazin-2-yl}amino)benzene-1-sulfonamide] | 508 | 320 | 9.7 | 6.1 | 52.2 | 5.8 | 3.6 | 87.5 | 11 | – | 27 | – | – | – | – | – | ≤ 10 | ≤ 10 | 222 to 224 | –
N#C/C(=C\c1cccc(F)c1)c1nc(N)nc(Nc2ccc(S(N)(=O)=O)cc2)n1 [Compound 12i, 4-({4-Amino-6-[(1E)-1-cyano-2-(3-fluorophenyl)eth-1-en-1-yl]-1,3,5-triazin-2-yl}amino)benzene-1-sulfonamide] | 480 | 253 | – | – | – | – | – | 182 | 17 | 16.58 | ≤ 10 | 0.76 | 1480 ± 80 | 64.75 | 50.14 | 9830 ± 520 | ≤ 10 | 20 | – | GI% non-small cell lung cancer (HOP-92) [19]: 16%
CN[C@@H]1C[C@H]2O[C@@](C)([C@@H]1OC)n1c3ccccc3c3c4c(c5c6ccccc6n2c5c31)C(=O)NC4 [Staurosporine, reference compound] | – | – | – | – | – | – | – | – | – | – | – | – | – | – | – | 2170 ± 110 | – | – | – | –
